This note sets out measurements from US4668684A, “Combination of flupirtin and anticholinergic acting spasmolytic” (priority 1985, dated 1987).

Structures are written as SMILES. Counter-ions that a name gives are not always drawn. Like-named read-outs stand apart in the source and are kept apart here.

As a reminder, the ED50 is the midpoint of the dose-response relation. As usually defined, the LD50 is the dose expected to kill half of the subjects tested. High values mean lower toxicity, low ones greater toxicity.

The test system of data set [1] is writhing syndrome (mouse). The data set is described as follows: Acetic acid test (Writhing test) on the mouse, analgetic effect. Type of data set: in vivo, NMRI-Mouse. The note with it: alone; for Analgetic Effect in %: average of 10 mice; for ED50: Mus musculus, po, 0.5 h, read-out: ED50 after 30 minutes. On the technique in general: In writhing tests, fewer writhes than in controls are read as antinociception.

Data set [2] concerns gastrointestinal passage (guinea pigs). The data set can be described thus: Carbon transport model (influence on the gastrointestinal passage). Format: in vivo, guinea pig. The note with it: alone; for ED50: peroral, linear regression; for Spasmolytic Effect, Retardation in %: negative value. As to the method: Relying on Komlus and Pet/o/ cz (and modifications) (1970) Arzneim Forsch. Volume 20, pages 1338-1357 guinea pigs received 30 minutes after being given the substance a 10% carbon suspension in demineralized water in a volume of 1 ml/animal dispensed with the stomach probe. 0.5 hours later the animals were killed and starting from the stomach there was measured on one animal the entire length of intestine, on the others the length of the stretch blackened by the carbon. The stretch changed by the carbon was calculated in percent of the entire length in order to compensate for the different intestinal lengths of the individual animals in the evaluation of the effect of the substance. The effect on the gastro-intestinal passage is given from the comparison between the control and the animals (average value) treated with the substances. Ascertaining the ED50 (dosage in mg/kg at which there is 50% retardation of the carbon transport) is by means of linear regression.
Retardation of carbon transport signifies spasmolytic effect. The greater this retardation the greater also is the spasmolytic effect.
*Calculation of the ED50 by means of linear regression

For data set [3], the system named is guinea pig small intestine. The data set can be described thus: Spasmolytic effect on the guinea pig small intestine in situ (acetylcholine spasm). Type of data set: in vivo. The note with it: for % Spasmolytic Effect / Spasmolytic activity (in words): alone; for % Spasmolytic Effect: negative value; for Spasmolytic activity (in words): intraduodenally. Here is the method: A balloon catheter was introduced into the ileum of guinea pigs narcotized with urethane (1.8 g/kg subcutaneously) after tracheotomy (tying up a tracheal channel to make breathing easier) and the catheter filled with air. Rhythmic contractions were carried out by the intestine, the so-called […] (dependent upon filling), through which a pressure is exerted on the rubber balloon. The pressure […] changes were recorded on a linear recorder via a pressure recorder connected to the balloon catheter and a carrier frequency bridge (TF of Hellige Co.). On one there can be measured the spontaneous […], on the other the spasms released by superfusion of […] (acetylcholine iodide, barium chloride or carbachol). By previously giving the […] intravenously or intraduodenally the height of the spasms released is retarded and can be determined in percent spasmolysis compared to a starting value. There is given as spasmolytic effect or spasmolysis how great a percent of spasm is liberated by the spasmogen (e.g. acetylcholine iodide) compared to the value which originates from the spasmogen (on the same animal).

Data set [4] concerns gall bladder of the mouse. The data set is described as follows: Gall bladder model on the mouse, spasmolytic effect. Type of data set: in vivo, NMRI-Mouse. To be noted: alone; for ED50: Mus musculus, po, peroral, linear regression. Here is the method:
The experiment is carried out relying on the methods of […] and Toson, J. Pharmacol. Methods Volume 7, pages 193 et. seq. (1982). The principle of this method is the gravimetric measurement of the gall bladder of the mouse. The gall bladder was stimulated through dispensation of egg yolk for delivery of bile. This delivery was carried out through natural spasms of the gall bladder. By previously dispensing a spasmolytically acting test material these spasms of the gall bladder were retarded and therewith likewise the delivery of bile. Thus the heavier the gall bladder is after dispensing the egg yolk the less bile it has delivered. The weight of the gall bladder in this test therefore is a measure of the spasmolytic effect of a material. […] The control animals received Methocel in the corresponding amount. […] Because of the evaluation 2 control groups must be present. […] The egg yolk suspension consisted of 3 parts by weight egg yolk in 7 parts by weight NaCl 0.9%. For this reason control group No. 1 also received 1 ml NaCl 0.9%. […] The gall bladder was prepared and weighed. The evaluation was carried out according to the formula: [(A-B)/(C-B)]×100=% Activity […]

Another data set in a line: in vivo. The note with it: mouse, po.

Turning to `CCOC(=O)Nc1ccc(NCc2ccc(F)cc2)nc1N` [Flupirtin (Gluconate), 2-amino-3-carbethoxyamino-6-(4-fluoro-benzylamino)-pyridine], the “Analgetic Effect in %” value in data set [1] (0.56 mg/kg per os) is given as 19.2%; in data set [1] (1.12 mg/kg per os) it was 28.0%; in data set [1] (2.24 mg/kg per os) it was 37.6%; in data set [1] (4.47 mg/kg per os) it was 46.4%; in data set [1] (8.93 mg/kg per os), 38.4%; in data set [1] (17.85 mg/kg per os), 22.4%. Further, the “Analgetic Effect in %” value in data set [1] (35.7 mg/kg per os) was found to be 61.6%.
Take `CCCC[N+]1(C)C2CC(OC(=O)C(CO)c3ccccc3)CC1C1OC12` (stereo not shown) [Butylscopolammonium bromide, butylscopolammonium bromide]: the ED50 in data set [2] (Cavia porcellus, po, read-out: ED50) was found to be 132 mg/kg; in data set [4] it was 117 mg/kg; in data set [1] (per os, linear regression), 1.5 mg/kg. For the same compound, the “Spasmolytic Effect, Retardation in %” value in data set [2] (30.0 mg/kg peroral) is -8.16%; in data set [2] (100.0 mg/kg peroral), -58.39%; in data set [2] (300.0 mg/kg peroral), -61.62%. Besides, the “% Spasmolytic Effect” value in data set [3] (50.0 mg/kg intraduodenally, 30 minutes after dispensation) was -13.1%; in data set [3] (100.0 mg/kg intraduodenally, 30 minutes after dispensation), -37.9%; in data set [3] (200.0 mg/kg intraduodenally, 30 minutes after dispensation), -35.0%. Moreover, the “Spasmolytic activity (in words)” value in data set [3] was “no dosage dependent spasmolytic activity”. Moreover, the “Spasmolytic Effect in %” value in data set [4] (3.0 mg/kg peroral) is reported as 4.6%; in data set [4] (10.0 mg/kg peroral) it was 19.1%; in data set [4] (30.0 mg/kg peroral), 20.7%; in data set [4] (100.0 mg/kg peroral), 35.9%; in data set [4] (300.0 mg/kg peroral), 76.6%. In addition, the “Analgetic Effect in %” value worked out at 22.4% in data set [1] (0.5 mg/kg per os), 48.4% in data set [1] (1.0 mg/kg per os), 64.6% in data set [1] (2.0 mg/kg per os) and 59.0% in data set [1] (4.0 mg/kg per os).
For the compound `CC[N+](C)(CC)CCOC(C)(c1ccccc1)C1CC2C=CC1C2.[Br-]` (stereo not shown) [Ciclonium bromide], the “Analgetic Effect in %” value in data set [1] (0.01 mg/kg per os) is 18.5%; in data set [1] (0.1 mg/kg per os), 46.3%; in data set [1] (0.5 mg/kg per os), 53.1%. For the same compound, the “ED50 after 30 minutes” value in data set [1] (per os, linear regression) stood at 0.26 mg/kg.
Consider `CCOC(=O)Nc1ccc(NCc2ccc(F)cc2)nc1N` [Flupirtin (HCl), 2-amino-3-carbethoxyamino-6-(4-fluoro-benzylamino)-pyridine], for which the “Spasmolytic Effect, Retardation in %” value in data set [2] (20.0 mg/kg peroral) is listed as -11.73%; in data set [2] (40.0 mg/kg peroral) it was -21.55%; in data set [2] (80.0 mg/kg peroral) it was -18.70%. For the same compound, the ED50 entry is “not dosage depen-” in data set [2] and 2.4 mg/kg in data set [4]. Also, the “Spasmolytic Effect in %” value in data set [4] (1.0 mg/kg peroral) is listed as 30.06%; in data set [4] (3.0 mg/kg peroral) it was 64.36%; in data set [4] (10.0 mg/kg peroral), 69.25%.
Turning to `CCOC(=O)Nc1ccc(NCc2ccc(F)cc2)nc1N` [Flupirtin (Maleate), 2-amino-3-carbethoxyamino-6-(4-fluoro-benzylamino)-pyridine], the “Spasmolytic effect / ED50 (in words)” value in data set [3] (alone, 10.0, 30.0 and 50.0 mg/kg intraduodenally, 30 minutes after dispensation) is on record as “no spasmolytic”. Moreover, the ED50 in data set [1] (per os, linear regression) is 44.7 mg/kg. In addition, the “Analgetic Effect in %” value in data set [1] (20.0 mg/kg per os) was 12.0%; in data set [1] (40.0 mg/kg per os), 54.0%; in data set [1] (80.0 mg/kg per os), 70.0%.
Turning to `CCOC(=O)Nc1ccc(NCc2ccc(F)cc2)nc1N` [Flupirtin, 2-amino-3-carbethoxyamino-6-(4-fluoro-benzylamino)-pyridine], the ED50 entry in data set [2] was “cannot be calculated”. Further, the “Spasmolytic activity (in words)” value in data set [3] is “no spasmolytic activity”. Also, the LD50 in “in vivo” stood at 552 mg/kg.
